Literature values in patent US8389778B2, “Preparation of mannitol modification III” (Aptuit (West Lafayette), LLC, priority 2007, dated 2013).

stability of the hemihydrate (ambient conditions)	SMILES	phase transformation of modification III into modification I on storage (kept dry, period of 5 years)
unstable under ambient conditions	OC[C@@H](O)[C@@H](O)[C@H](O)[C@H](O)CO [hemihydrate, Mannitol hemihydrate]	–
–	OC[C@@H](O)[C@@H](O)[C@H](O)[C@H](O)CO [modification III, mannitol]	did not transform into modification I over a period of 5 years
